Where a SMILES comes first, the peptide text is derived from it. The star is where a group is joined. Myristoyl = CCCCCCCCCCCCCC(=O)*
Columns and labels:
[1] = test system: CD44^hiCD24^lo CSCs in MDA-MB-231 cells; experiment: FACS analysis of CD44^hiCD24^lo cancer stem cells in MDA-MB-231 cells treated with P1 analogues; type: cell-based, human; settings: for Inhibition of CSCs (%) Repeat 1 / Inhibition of CSCs (%) Repeat 2 / Inhibition of CSCs (%) Repeat 3 / CD44^hiCD24^lo CSCs (%) / COI, Live Single CD44^hiCD24^lo CSCs (Cell Count) / Average Inhibition of CSCs (%) / CD44^hiCD24^lo CSCs (%) Repeat 1 / CD44^hiCD24^lo CSCs (%) Repeat 2 / CD44^hiCD24^lo CSCs (%) Repeat 3: 50 μM peptide, 48 hours; for CD44^hiCD24^lo CSCs (%) / COI, Live Single CD44^hiCD24^lo CSCs (Cell Count): n = 1; for Average Inhibition of CSCs (%) / CD44^hiCD24^lo CSCs (%) Repeat 1 / CD44^hiCD24^lo CSCs (%) Repeat 2 / CD44^hiCD24^lo CSCs (%) Repeat 3: n = 3
Protocol: Analogues of P1 (Table 6) were designed and synthesized in accordance with the procedure of Example 5. The ability of these analogues to inhibit cancer stem cells was determined using FACS analysis on MDA-MB-231 cells, which constitutively contain approximately 90% CD44^hiCD24^lo cancer stem cells, treated with the peptides.
(§1) Non-adherent cells were removed during the washing steps.

MDA-MB-231 cells = type: cell-based, human; settings: for killing of total MDA-MB-231 cells: not only the CSCs
Description: as §1

[2] = test system: CD44^hiCD24^lo CSCs in MCF7 cells; experiment: FACS analysis of CD44^hiCD24^lo CSCs in MCF7 cells; type: cell-based, human; settings: 50 μM peptide, 48 hours
Protocol: (§2) P1 Analogues were synthesized in accordance with the procedure of Example 5. 4×10^4 MDA-MB-231 cells or 1×10^4 induced or non-induced MCF7 cells were seeded in a 12 well plate with 1 mL complete media overnight. Induced MCF7 cells were prepared by stimulating cells with PMA/TGF-β and incubating for 12 hours. Cells were treated with 50 μM test peptide (dissolved in water) for 48 hours. Cells were then washed twice with 1 mL PBS and harvested by trypsinisation. Non-adherent cells were removed during the washing steps. Adherent cells were collected, and were subsequently stained with anti-human CD44, CD24 and Hoechst 33342 antibodies on ice for 30 mins. FACS was performed on BD FACS LSRII to measure the percentage of CD44^hiCD24^lo CSCs by dividing CD44^hiCD24^lo events by total live cell counts (Hoechst negative population) (as described in Fillmore and Kuperwasser (2007) Breast Cancer Res, 9: 303). The percentage of viable cells was calculated by dividing total live cell events by total single cells as described previously (Siemann and Keng (1986), Cancer Res, 46: 3556-3559).

MCF7 cells = test system: MCF7 cells
Protocol: as §2

induced MCF7 cells = experiment: FACS CSC inhibition in induced MCF7 cells; type: cell-based, human; settings: induced MCF7 cells (PMA/TGF-β), 50 μM peptide, 48 hours
Protocol: as §2

PD-L1 = experiment: Immunofluorescence (confocal) of PD-L1 in MDA-MB-231 cells, Example 6; type: cell-based, human; settings: 50 μM, 72 hours
Protocol: (§3) Confocal laser scanning microscopy was employed to investigate the effect of P1, P2 and P3 (synthesized in accordance with Example 5) on the nuclear expression of PD-L1 and acetylated PD-L1 (PDL1-Ac) (FIG. 9).
(§4) 1×10^4 MDA-MB-231 cells were seeded onto coverslips in 12 well plates with DMEM media overnight. Cells were treated with 50 μM P1, P2, P3 or P4 or vehicle (water) for 72 hours. Treated cells were fixed with 3.7% formaldehyde, and then permeabilised by incubating with 1% Triton X-100 for 20 min. Cells were then probed with a rabbit anti-PD-L1 antibody (Santa Cruz Biotechnology) or rabbit anti-acetylated PD-L1 (generated as described above) and visualized with a donkey anti-rabbit AF 488. Cover slips were mounted on glass microscope slides with ProLong Diamond Antifade reagent (Life Technologies). Protein targets were localized using confocal laser scanning microscopy. Single 0.5 μm sections were obtained using a Leica DMI8 microscope using 100× oil immersion lens running LAX software. The final image was obtained by averaging four sequential images of the same section. Digital images were analyzed using ImageJ software as described above.

[3] = test system: PD-L1 acetylated at lysine 263; experiment: Immunofluorescence (confocal) of acetylated PD-L1 in MDA-MB-231 cells, Example 6; type: cell-based, human; settings: 50 μM, 72 hours
Protocol: as §3, §4

EHTM2 = experiment: Immunofluorescence of EHTM2 in MDA-MB-231 cells; type: cell-based, human; settings: 50 μM, 72 hours
Protocol: (§5) Cells were treated with 50 μM P1, P2, P3 or P4 (synthesized in accordance with Example 5) or vehicle (water) for 72 hours. […] Confocal laser scanning microscopy was used to measure the […] and TCFI as described above. At least 20 individual cells were analyzed per sample.

DMNTI = experiment: Immunofluorescence of DMNTI in MDA-MB-231 cells; type: cell-based, human; settings: 50 μM, 72 hours
Protocol: as §5

SETDB1 = experiment: Immunofluorescence of SETDB1 in MDA-MB-231 cells; type: cell-based, human; settings: 50 μM, 72 hours
Protocol: as §5

p300 = biological target: T1, p300 (Homo sapiens, UniProt Q09472); experiment: Immunofluorescence of p300 localization in MDA-MB-231 cells; type: cell-based; settings: 50 μM
T1 construct: endogenous in cells; host or cells: MDA-MB-231
Protocol: (§6) The effect of P1, P2, P3 and P4 (synthesized in accordance with Example 5) on p300 localization was examined using confocal laser scanning microscopy. […] Cover slips were mounted on glass microscope slides with ProLong Diamond Antifade reagent (Life Technologies). Protein targets were localized by confocal laser scanning microscopy as described above. TNFI and PCC(r) were calculated using ImageJ software as previously described.

[4] = test system: acetylated PD-L1 and p300; experiment: Colocalization (PCC(r)) of acetylated PD-L1 and p300 in MDA-MB-231 cells; type: cell-based, human; settings: 50 μm
Protocol: as §6

[5] = MCF7 cells, 50 μM peptide, 48 hours
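Throughout, for COI, Live Single Cells (Cell Count): live means Hoechst-negative events among single cells.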

T1 sequence (Q09472 whole entry): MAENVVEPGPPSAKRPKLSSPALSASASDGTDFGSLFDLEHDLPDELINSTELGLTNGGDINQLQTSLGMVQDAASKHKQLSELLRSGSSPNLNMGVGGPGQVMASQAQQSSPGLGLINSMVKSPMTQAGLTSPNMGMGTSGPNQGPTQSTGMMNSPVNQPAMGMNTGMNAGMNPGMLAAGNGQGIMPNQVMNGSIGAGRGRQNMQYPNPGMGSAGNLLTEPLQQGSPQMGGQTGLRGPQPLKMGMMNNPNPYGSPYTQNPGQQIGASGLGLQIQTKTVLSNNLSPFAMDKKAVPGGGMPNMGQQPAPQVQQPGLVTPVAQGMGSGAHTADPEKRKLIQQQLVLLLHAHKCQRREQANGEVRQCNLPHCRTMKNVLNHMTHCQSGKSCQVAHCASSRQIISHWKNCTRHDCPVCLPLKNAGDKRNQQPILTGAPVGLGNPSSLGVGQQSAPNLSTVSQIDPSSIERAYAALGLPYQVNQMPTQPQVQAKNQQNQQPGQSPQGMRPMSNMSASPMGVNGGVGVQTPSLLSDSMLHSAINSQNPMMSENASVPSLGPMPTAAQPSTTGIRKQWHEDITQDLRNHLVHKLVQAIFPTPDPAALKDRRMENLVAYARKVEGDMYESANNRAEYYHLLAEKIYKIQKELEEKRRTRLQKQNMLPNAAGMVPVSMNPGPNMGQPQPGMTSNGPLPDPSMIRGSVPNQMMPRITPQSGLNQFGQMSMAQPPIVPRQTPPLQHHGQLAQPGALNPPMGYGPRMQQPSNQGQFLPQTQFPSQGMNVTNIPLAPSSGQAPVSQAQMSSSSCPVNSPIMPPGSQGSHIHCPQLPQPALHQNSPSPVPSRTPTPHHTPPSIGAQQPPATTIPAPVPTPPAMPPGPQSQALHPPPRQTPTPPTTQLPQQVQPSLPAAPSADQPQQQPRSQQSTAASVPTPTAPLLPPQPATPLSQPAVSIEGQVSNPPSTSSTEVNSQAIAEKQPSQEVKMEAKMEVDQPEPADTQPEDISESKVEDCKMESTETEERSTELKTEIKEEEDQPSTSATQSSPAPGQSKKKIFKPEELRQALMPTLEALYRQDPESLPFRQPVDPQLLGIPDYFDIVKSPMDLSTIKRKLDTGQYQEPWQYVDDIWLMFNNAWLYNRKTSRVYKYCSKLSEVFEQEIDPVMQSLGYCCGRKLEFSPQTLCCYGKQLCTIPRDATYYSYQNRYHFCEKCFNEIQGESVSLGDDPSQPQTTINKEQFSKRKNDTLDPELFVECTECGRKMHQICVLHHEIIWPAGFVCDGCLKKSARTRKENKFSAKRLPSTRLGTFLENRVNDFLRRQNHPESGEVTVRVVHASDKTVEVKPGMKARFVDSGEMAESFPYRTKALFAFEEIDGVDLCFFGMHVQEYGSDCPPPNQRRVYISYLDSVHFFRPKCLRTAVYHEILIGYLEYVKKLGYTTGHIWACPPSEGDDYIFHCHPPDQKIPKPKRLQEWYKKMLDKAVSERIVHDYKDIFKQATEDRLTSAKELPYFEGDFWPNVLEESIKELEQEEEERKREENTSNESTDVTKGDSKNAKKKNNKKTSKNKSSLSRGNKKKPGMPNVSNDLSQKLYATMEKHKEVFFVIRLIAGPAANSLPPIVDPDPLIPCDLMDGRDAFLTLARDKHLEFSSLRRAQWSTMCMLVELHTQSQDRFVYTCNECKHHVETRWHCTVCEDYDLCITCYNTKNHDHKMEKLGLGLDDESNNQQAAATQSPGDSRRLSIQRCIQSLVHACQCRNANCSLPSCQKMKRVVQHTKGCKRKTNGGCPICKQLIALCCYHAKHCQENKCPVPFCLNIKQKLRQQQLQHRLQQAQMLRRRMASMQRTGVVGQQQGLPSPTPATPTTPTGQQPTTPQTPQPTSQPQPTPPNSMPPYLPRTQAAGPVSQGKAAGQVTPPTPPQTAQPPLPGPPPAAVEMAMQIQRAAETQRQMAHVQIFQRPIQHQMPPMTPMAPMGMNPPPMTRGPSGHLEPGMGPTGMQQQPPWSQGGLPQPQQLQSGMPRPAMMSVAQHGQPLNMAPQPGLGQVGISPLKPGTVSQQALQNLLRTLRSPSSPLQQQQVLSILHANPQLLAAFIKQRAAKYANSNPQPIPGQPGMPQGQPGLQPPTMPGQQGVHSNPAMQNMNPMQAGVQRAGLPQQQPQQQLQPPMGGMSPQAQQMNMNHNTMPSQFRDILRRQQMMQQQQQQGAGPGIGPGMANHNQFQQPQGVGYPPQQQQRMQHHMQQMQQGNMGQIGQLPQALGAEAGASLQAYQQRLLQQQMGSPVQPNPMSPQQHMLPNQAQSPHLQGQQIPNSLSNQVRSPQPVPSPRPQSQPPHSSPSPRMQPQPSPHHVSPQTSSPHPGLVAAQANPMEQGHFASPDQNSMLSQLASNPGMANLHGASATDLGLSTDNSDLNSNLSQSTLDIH

SMILES | Inhibition of CSCs (%) Repeat 1 [1] [%] | Inhibition of CSCs (%) Repeat 2 [1] [%] | Inhibition of CSCs (%) Repeat 3 [1] [%] | CD44^hiCD24^lo CSCs (%) [1] [%] | COI, Live Single CD44^hiCD24^lo CSCs (Cell Count) [1] | Average Inhibition of CSCs (%) [1] [%] | CD44^hiCD24^lo CSCs (%) Repeat 1 [1] [%] | CD44^hiCD24^lo CSCs (%) Repeat 2 [1] [%] | CD44^hiCD24^lo CSCs (%) Repeat 3 [1] [%] | COI (Cell Count) (MDA-MB-231 cells; 50 μM peptide, 48 hours, n = 1) | COI, Live Single Cells (Cell Count) (MDA-MB-231 cells; 50 μM peptide, 48 hours, n = 1) | COI, Single (Cell Count) (MDA-MB-231 cells; 50 μM peptide, 48 hours, n = 1) | Total Cell Count (MDA-MB-231 cells; 50 μM peptide, 48 hours, n = 1) | killing of total MDA-MB-231 cells (MDA-MB-231 cells) | CD44^hiCD24^lo CSC % [2] [%] | COI/Single Cells/Live/CD44^hiCD24^lo CSCs Count [2] | COI Count (MCF7 cells; [5]) | COI/Single Cell Count (MCF7 cells; [5]) | COI/Single Cells/Live Count (MCF7 cells; [5]) | Total Count (MCF7 cells; [5]) | also measured
CCCCCCCCCCCCCC(=O)N[C@@H](CC(C)C)C(=O)N[C@H](C(=O)N[C@@H](Cc1ccccc1)C(=O)N[C@H](C(=O)N[C@@H](Cc1ccccc1)C(=O)N[C@@H](CCCNC(=N)N)C(=O)N[C@@H](CC(C)C)C(=O)N[C@@H](CCCNC(=N)N)C(=O)N[C@@H](CCCCN)C(=O)NCC(=O)N[C@@H](CCCNC(=N)N)C(=O)N[C@@H](CCSC)C(=O)N[C@@H](CCSC)C(=O)N[C@@H](CC(=O)O)C(=O)N[C@@H](CCCCN)C(=O)N[C@@H](CCCCN)C(=O)N[C@@H](CCCCN)C(N)=O)[C@@H](C)CC)[C@@H](C)O [Peptide 2853839, Myristoyl-LTFIFRLRKGRMMDKKK-NH2] (Myristoyl-LTFIFRLRKGRMMDKKK-NH2) | 100.00 | 100.00 | 100.00 | 0.00 | 0 | 100.00 | 0.00 | 0.00 | 0.00 | 12 | 2 | 10 | 619 | killed the majority of the total MDA-MB-231 cells | 1.14 | 25 | 3128 | 2294 | 2200 | 10000 | CSC inhibition (%) (induced MCF7 cells): 83.87%
CCCCCCCCCCCCCC(=O)N[C@@H](Cc1ccccc1)C(=O)N[C@@H](CCCNC(=N)N)C(=O)N[C@@H](CC(C)C)C(=O)N[C@@H](CCCNC(=N)N)C(=O)N[C@@H](CCCCN)C(=O)NCC(=O)N[C@@H](CCCNC(=N)N)C(=O)N[C@@H](CCSC)C(=O)N[C@@H](CCSC)C(=O)N[C@@H](CC(=O)O)C(=O)N[C@H](C(=O)N[C@@H](CCCCN)C(=O)N[C@@H](CCCCN)C(N)=O)C(C)C [Peptide P4, Myristoyl-FRLRKGRMMDVKK-NH2] (Myristoyl-FRLRKGRMMDVKK-NH2) | – | – | – | 87.66 | 3311 | – | – | – | – | 4910 | 3777 | 3903 | 7923 | – | – | – | – | – | – | – | localization of PD-L1 (PD-L1): no effect; localization of acetylated PD-L1 [3]: no effect; expression / localization of EHTM2 (EHTM2): did not have a significant effect; expression / nuclear localization of DMNTI (DMNTI): inhibited; expression / nuclear localization of SETDB1 (SETDB1): inhibited; p300 nuclear expression (p300): slightly decreased; colocalization of acetylated PD-L1 and p300 [4]: no effect
CCCCCCCCCCCCCC(=O)N[C@@H](CC(C)C)C(=O)N[C@H](C(=O)N[C@@H](Cc1ccccc1)C(=O)N[C@H](C(=O)N[C@@H](Cc1ccccc1)C(=O)N[C@@H](CCCNC(=N)N)C(=O)N[C@@H](CC(C)C)C(=O)N[C@@H](CC(C)C)C(=O)N[C@@H](CCCCN)C(=O)NCC(=O)N[C@@H](CCCNC(=N)N)C(=O)N[C@@H](CCSC)C(=O)N[C@@H](CCSC)C(=O)N[C@@H](CC(=O)O)C(=O)N[C@H](C(=O)N[C@@H](CCCCN)C(=O)N[C@@H](CCCCN)C(N)=O)C(C)C)[C@@H](C)CC)[C@@H](C)O [Peptide 2853825, Myristoyl-LTFIFRLLKGRMMDVKK-NH2] (Myristoyl-LTFIFRLLKGRMMDVKK-NH2) | 100.00 | 100.00 | 100.00 | 0.00 | 0 | 100.00 | 0.00 | 0.00 | 0.00 | 18 | 0 | 15 | 1583 | killed the majority of the total MDA-MB-231 cells | 0.00 | 0 | 72 | 35 | 0 | 10000 | Viable Cells (%) (MDA-MB-231 cells; 50 μM peptide, 48 hours, n = 1): 0.00%; cytotoxicity to MCF7 cells (MCF7 cells): cytotoxic; % Viable Cells (MCF7 cells; [5]): 0.00%; CSC inhibition (%) (induced MCF7 cells): Cytotoxic
CCCCCCCCCCCCCC(=O)N[C@H](C(=O)N[C@@H](Cc1ccccc1)C(=O)N[C@H](C(=O)N[C@@H](Cc1ccccc1)C(=O)N[C@@H](CCCNC(=N)N)C(=O)N[C@@H](CC(C)C)C(=O)N[C@@H](CCCNC(=N)N)C(=O)N[C@@H](C)C(=O)NCC(=O)N[C@@H](CCCNC(=N)N)C(=O)N[C@@H](CCSC)C(=O)N[C@@H](CCSC)C(=O)N[C@@H](CC(=O)O)C(=O)N[C@H](C(=O)N[C@@H](CCCCN)C(=O)N[C@@H](CCCCN)C(N)=O)C(C)C)[C@@H](C)CC)[C@@H](C)O [Peptide 2815309, Myristoyl-TFIFRLRAGRMMDVKK-NH2] (Myristoyl-TFIFRLRAGRMMDVKK-NH2) | 100.00 | 100.00 | 100.00 | 0.00 | 1 | 100.00 | 0.00 | 0.00 | 0.00 | 74 | 1 | 71 | 4158 | killed the majority of the total MDA-MB-231 cells | 3.35 | 134 | 5425 | 4124 | 4000 | 10000 | ability to inhibit cancer stem cells (CD44^hiCD24^lo CSCs) ([1]; in words): retained the ability to inhibit cancer stem cells; CSC inhibition (%) (induced MCF7 cells): 52.46%

— patent US20200339691A1, “PROTEINACEOUS MOLECULES AND USES THEREFOR” (priority 2018, published 2020)
